From ChEMBL document CHEMBL1131908 (Bioorg Med Chem Lett, 1999)

Key:
[1] = target: T1, Delta-type opioid receptor (Rattus norvegicus, UniProt P33533); assay: Ability to inhibit binding of SNC80 to delta opioid receptor
[2] = target: T2, Mu-type opioid receptor (Rattus norvegicus, UniProt P33535); assay: Ability to displace [3H]DAMGO from mu opioid receptor
[3] = target: T1, Delta-type opioid receptor; assay: Ability to displace [3H]DADL from delta opioid receptor
[4] = target: T3, Kappa-type opioid receptor (Cavia porcellus, UniProt P41144); assay: Ability to displace [3H]U-69593 from kappa opioid receptor
[5] = target: Opioid receptors; mu & delta (Homo sapiens) (UniProt P41143+P35372); assay: Ratio of binding affinities of mu and delta opioid receptors; format: protein assay
[6] = target: T3, Kappa-type opioid receptor; assay: Ability to inhibit binding of U-69,593 to kappa opioid receptor
[7] = target: T2, Mu-type opioid receptor; assay: Ability to inhibit binding of [3H]DAMGO to mu opioid receptor

Opioid receptors; mu & delta (Homo sapiens), sequence (P35372 whole entry, looked up): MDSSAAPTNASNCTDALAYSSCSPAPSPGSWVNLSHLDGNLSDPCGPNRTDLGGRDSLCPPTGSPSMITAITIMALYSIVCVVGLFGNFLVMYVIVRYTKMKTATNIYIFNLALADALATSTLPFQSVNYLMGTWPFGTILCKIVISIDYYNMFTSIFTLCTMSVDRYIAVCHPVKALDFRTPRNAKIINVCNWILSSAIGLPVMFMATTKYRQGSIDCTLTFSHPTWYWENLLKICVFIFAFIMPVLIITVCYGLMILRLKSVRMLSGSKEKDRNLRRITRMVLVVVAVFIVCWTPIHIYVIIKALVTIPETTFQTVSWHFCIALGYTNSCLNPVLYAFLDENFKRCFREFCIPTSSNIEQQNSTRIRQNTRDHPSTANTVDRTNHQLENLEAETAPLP
Opioid receptors; mu & delta (Homo sapiens), sequence (P41143 whole entry, looked up): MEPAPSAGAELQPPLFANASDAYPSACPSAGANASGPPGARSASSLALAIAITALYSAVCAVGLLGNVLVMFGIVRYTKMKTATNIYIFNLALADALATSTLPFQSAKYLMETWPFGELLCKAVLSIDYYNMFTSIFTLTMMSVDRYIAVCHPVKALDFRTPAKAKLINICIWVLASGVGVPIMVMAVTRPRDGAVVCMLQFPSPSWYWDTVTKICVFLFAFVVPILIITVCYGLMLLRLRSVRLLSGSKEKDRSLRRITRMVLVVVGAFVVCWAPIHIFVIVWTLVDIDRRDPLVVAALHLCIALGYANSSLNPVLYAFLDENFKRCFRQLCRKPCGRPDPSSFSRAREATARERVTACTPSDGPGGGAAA
T3 sequence (P41144 whole entry): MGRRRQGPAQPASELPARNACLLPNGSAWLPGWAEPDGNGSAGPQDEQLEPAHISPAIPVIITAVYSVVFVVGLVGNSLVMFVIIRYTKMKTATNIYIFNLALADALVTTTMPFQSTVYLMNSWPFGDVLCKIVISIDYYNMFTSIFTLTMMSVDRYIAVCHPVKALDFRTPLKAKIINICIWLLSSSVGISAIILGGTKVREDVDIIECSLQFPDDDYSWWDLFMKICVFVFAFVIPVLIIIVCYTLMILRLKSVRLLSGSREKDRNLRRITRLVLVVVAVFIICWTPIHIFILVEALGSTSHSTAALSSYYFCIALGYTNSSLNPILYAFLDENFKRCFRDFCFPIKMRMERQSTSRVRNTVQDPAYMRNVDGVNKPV
T1 sequence (P33533 whole entry): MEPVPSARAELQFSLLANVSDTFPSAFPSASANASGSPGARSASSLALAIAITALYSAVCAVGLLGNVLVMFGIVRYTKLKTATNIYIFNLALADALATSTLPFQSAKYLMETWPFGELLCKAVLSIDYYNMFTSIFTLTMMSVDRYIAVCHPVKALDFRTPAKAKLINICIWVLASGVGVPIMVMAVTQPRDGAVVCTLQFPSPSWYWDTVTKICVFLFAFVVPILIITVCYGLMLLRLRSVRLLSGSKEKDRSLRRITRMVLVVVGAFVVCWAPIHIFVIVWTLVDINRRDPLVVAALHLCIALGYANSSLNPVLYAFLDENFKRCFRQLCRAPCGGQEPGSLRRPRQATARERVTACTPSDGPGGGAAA
T2 sequence (P33535 whole entry): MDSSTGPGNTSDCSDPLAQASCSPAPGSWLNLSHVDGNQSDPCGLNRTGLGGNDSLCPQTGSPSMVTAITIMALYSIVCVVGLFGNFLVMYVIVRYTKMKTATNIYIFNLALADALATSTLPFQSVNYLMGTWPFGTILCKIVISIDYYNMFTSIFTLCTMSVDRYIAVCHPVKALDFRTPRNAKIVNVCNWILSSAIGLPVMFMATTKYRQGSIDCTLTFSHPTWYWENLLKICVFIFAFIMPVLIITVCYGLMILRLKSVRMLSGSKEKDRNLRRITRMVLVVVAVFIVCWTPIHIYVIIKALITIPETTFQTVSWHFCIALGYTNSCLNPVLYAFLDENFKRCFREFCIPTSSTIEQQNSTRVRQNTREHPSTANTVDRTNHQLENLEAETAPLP

`Oc1ccc2c3c1O[C@H]1c4[nH]c5ccccc5c4C[C@@]4(O)[C@@H](C2)N(CC2CC2)CC[C@]314` [NALTRINDOLE] gave a Ki [1] of 0.062 nM.
In the case of `O[C@@]12Cc3c([nH]c4ccccc34)C3Oc4c(OCCc5ccccc5)ccc5c4[C@@]31CCN(CC1CC1)[C@@H]2C5` (some centres undefined), the Ki [2] is reported as over 6250 nM, the Ki [3] is reported as 1040 nM and the Ki [4] is reported as over 7040 nM. It also gave a Ratio [5] of 7.
`O[C@@]12Cc3c([nH]c4ccccc34)C3Oc4c(OCc5ccccc5)ccc5c4[C@@]31CCN(CC1CC1)[C@@H]2C5` (some centres undefined) gave a Ki [2] of 396 nM, a Ki [3] of 103 nM and a Ki [4] of 728 nM. It also gave a Ratio [5] of 4.
`O[C@@]12Cc3c([nH]c4ccccc34)C3Oc4c(OCCCc5ccccc5)ccc5c4[C@@]31CCN(CC1CC1)[C@@H]2C5` (some centres undefined) showed a Ki [2] of over 6250 nM, a Ki [3] of 99 nM and a Ki [4] of over 5320 nM. The Ratio [5] was 54.
In the case of `COc1ccc2c3c1OC1c4[nH]c5ccccc5c4C[C@@]4(O)[C@@H](C2)N(CC2CC2)CC[C@]314` (some centres undefined), the Ki [2] is reported as 2510 nM, the Ki [3] is reported as 6.57 nM and the Ki [6] is reported as 1760 nM. It also gave a Ki [7] of 411 nM, a Ki [1] of 9 nM and a Ki [4] of 3910 nM.
